# Patent publication US20250099420A1, “SMALL MOLECULE MODULATORS OF GPR139 COMPLEX” (University of Florida Research Foundation, Incorporated, priority 2022, published 2025)
# Experiments:
# [1] = test system: parental HEK cells; test: HEK parental Antagonist Counterscreen Assay (non-transfected cells, acetylcholine control); assay type: cell-based; details: for EC50: Homo sapiens, HEK293, acetylcholine as control, scientific notation, molarity
# Excerpt: C. […] The HEK parental counterscreen utilized the same cells but not transfected with the plasmid. The agonist and antagonist modes were run the same way as the primary screen but acetylcholine was used in place of GPR139 agonist as the control compound.
# The HEK parental counterscreen utilized the same cells but not transfected with the plasmid. The antagonist modes assays utilized the cells being plated in the 1536 well plate overnight in growth media prior to dye loading in PDL coated plates and acetylcholine was used in place of GPR139 agonist as the control compound.
# (§1) The HEK parental counterscreen utilized the same cells but not transfected with the plasmid. Acetylcholine was used in place of GPR139 agonist as the control compound. The cells were plated overnight, similar to the HEK antagonist counterscreen protocol.
# The HEK parental counterscreens utilized the same cells but not transfected with the plasmid. Acetylcholine was used in place of GPR139 agonist as the control compound. The cells were plated overnight, similar to the HEK antagonist counterscreen protocol.
# (§2) For each test compound, percent activation was plotted against compound concentration. A four parameter equation describing a sigmoidal dose-response curve was then fitted with adjustable baseline using Assay Explorer software (Symyx Technologies Inc.).
# [2] = target: T1, GPR139 (Homo sapiens, UniProt Q6DWJ6); test: GPR139 Agonist titration / agonist counterscreen assay (calcium detection, HEK-GPR139 cells); assay type: cell-based; set-up: expressed in transfected cells; host or cells: HEK Aequorin cells, Maxcyte transient transfection; details: agonist counterscreen of the antagonists; for EC50: scientific notation, molarity, read-out: GRP139 Agonist activity EC50
# T1 sequence (Q6DWJ6 1-353): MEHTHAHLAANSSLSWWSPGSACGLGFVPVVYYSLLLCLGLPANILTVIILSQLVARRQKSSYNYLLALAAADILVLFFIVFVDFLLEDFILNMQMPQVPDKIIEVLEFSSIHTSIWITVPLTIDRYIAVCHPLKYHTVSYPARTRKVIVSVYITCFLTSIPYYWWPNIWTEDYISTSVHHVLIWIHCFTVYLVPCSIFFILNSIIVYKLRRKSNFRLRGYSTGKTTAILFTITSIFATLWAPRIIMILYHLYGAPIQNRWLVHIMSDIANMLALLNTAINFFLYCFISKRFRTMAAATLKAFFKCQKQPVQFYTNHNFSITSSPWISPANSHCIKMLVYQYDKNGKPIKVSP
# Procedure: GPR activity was assessed using a calcium detection assay. […] Negative control samples were treated with DMSO. […] Intracellular calcium was measured using Calcium 5.
# [3] = target: T1, GPR139; test: GPR139 Antagonist titration assay (calcium detection, HEK-GPR139 cells, vs EC80 of S-JNJ-63533054); details: for GPR139 Antagonist Activity Averaged Max % Response (±St. Dev.): activity relative to known control; for GPR139 Antagonist Activity Lipophilic Efficiency (logD): based on logD; for GPR139 Antagonist Activity Lipophilic Efficiency (logP): based on logP; for GPR139 Antagonist Activity Hill Slope: fitted dose-response curve
# Procedure: GPR activity was assessed using a calcium detection assay. GPR139 agonists stimulate an increase in intracellular calcium in HEK-GPR139 cells. Agonists increase the release of intracellular calcium, while antagonists decrease the release of intracellular calcium, as compared to an EC80 stimulation of the know agonist S-JNJ-63533054. The positive control for the agonist mode was cells treated with EC100 of known agonist S-JNJ-63533054. Negative control samples were treated with DMSO. The antagonist high control in cells was EC80 of S-JNJ-63533054+IC100 S-JNJ-3792165, while cells were treated with EC80 of S-JNJ-63533054+DMSO for the low control. Intracellular calcium was measured using Calcium 5.
# HEK cells were transfected the DNA encoding GPR139 and incubated for 24 hours. 3000 cells/well in 3 μL HEPES and 1% DMSO were seeded into 1536-well plates. 3 μL Calcium 5 was then added to each well and cells were incubated for 60 min. at 37° C. in 5% CO2 and 95% relative humidity. Cells were pretreated with 50 nL DMSO (5 min. at room temperature in the dark) to stabilize response and desensitize cells to DMSO. A 5 second basal read was recorded and compounds in 30 nL were added to the cells, followed by a 150 second read.
# B. Antagonist Mode: The “High Control” represented wells containing cells with GPR139+Antagonist IC100+Agonist EC80. “Low Control” represented wells containing cells with GPR139 with EC100 Agonist. “0% control” and sample field represented wells containing cells with GPR139 with EC80 Agonist with DMSO or compounds. The Z′ and S:B for this assay were calculated using the High Control and Low Control wells.
# as §1
# The GPR139 Agonist and Antagonist titration assays employed the same reagents, protocols, and detection systems as the primary assays, but tested each as 10 point dose response starting at 676 nM concentration in triplicate with 1:3 dilutions. The HEK parental counterscreens utilized the same cells but not transfected with the plasmid. Acetylcholine was used in place of GPR139 agonist as the control compound. The cells were plated overnight, similar to the HEK antagonist counterscreen protocol.
# as §2
# [4] = target: T1, GPR139; test: [3H]JNJ-63533054 radioligand competition binding assay on membranes of HEK293T/17 cells; set-up: HA signal peptide (HASP) (N); expressed in transfected cells; host or cells: HEK293T/17 cells (membrane preparation); details: for inhibition at 10 µM: 10 μM of the indicated compound, (10 μM) JNJ-63533054 as printed in title; for Ki: Ki=IC50/(1+C/Kd), membranes of HEK293T/17 cells expressing human GPR139, read-out: Ki ± SEM
# Excerpt: Eighteen compounds were selected for additional study. The compounds were re-synthesized and tested in radioligand binding competition assays for their ability to displace [^3H]-labeled reference agonist JNJ-63533054 on GPR139. The GPR139 construct used (pCDNA3.1-HASP-HA-GPR139) contained an N-terminal HA signal peptide (HASP), followed by an HA tag and human GPR139 (NM_001002911.4). HEK293T/17 cells were maintained in Dulbecco's modified Eagle's medium with 10% (v/v) fetal bovine serum, nonessential amino acids, and 1 mM sodium pyruvate.
# Competition binding assay: Radioligand binding assay used human GPR139 expressed in HEK293T/17 cells. HEK293T/17 cells were transfected pCDNA3.1-HASP-HA-GPR139. 48 h after, cells were detached from plates by pipetting with PBS, centrifuged at 500×g for 5 min, and then the fluid was aspirated away. The cell pellets were frozen with liquid nitrogen and stored at −80° C. Pellets were homogenized in TE buffer (50 mM Tris-HCl, pH 7.4, 5 mM EDTA) and centrifuged at 1000×g at 4° C. for 5 min. Supernatant was collected and recentrifuged at 30,000×g at 4° C. for 30 min. The pellet was rehomogenized in TE buffer and incubated for 60 minutes at room temperature with eight concentrations of [^3H]JNJ-63533054 (specific activity 24.7 Ci/mmol) ranging from 0.024 nM to 400 nM. The binding reaction was terminated by filtration through GF/C filter (Waterman) followed by washes with cold TE buffer. Filters were dried in a hood overnight followed by the addition of scintillation fluid. Bound radioactivity was counted on a Hidex 600 liquid scintillation counter. […] Nonspecific binding was determined with 10 μM JNJ-63533054. The Kd values of the radioligands and IC50 of the antagonist were calculated by Graphpad Prism. Ki values were calculated as Ki=IC50/(1+C/Kd), where C is concentration of the radioligand.
# Various concentrations of selected ligands were then added in the presence of 10 nM [^3H]-JNJ-63533054 and their ability to displace [^3H]labeling on cellular membranes was assessed. FIGS. 3B and 3C present representative data obtained in these experiments. […] The results of these experiments are presented in the Table 3 and confirm selective binding the compounds to GPR139 thereby validating their interaction with the intended target.
GRP139 Agonist activity Averaged Max % Response (±St. Dev.) [2],EC50 [2] [µM],EC50 [3] [µM],GPR139 Antagonist Activity Ligand Efficiency [3],GPR139 Antagonist Activity Averaged Max % Response (±St. Dev.) [3] [%],GPR139 Antagonist Activity Lipophilic Efficiency (logD) [3],GPR139 Antagonist Activity Lipophilic Efficiency (logP) [3],GPR139 Antagonist Activity Hill Slope [3],inhibition at 10 µM [4] [%],Ki [4] [µM],Structure (SMILES),HEK antagonist activity Averaged Max % Response (±St. Dev.) [1],EC50 [1] [µM]
29.53 ± 3.67%,> 14.1,4.7,0.32,82.15 ± 3.63,1.23,1.20,0.74,77.8 ± 5,7.31 ± 0.16,CCOC(=O)c1ccc2nc(C)c3c(c2c1)OC(C(C)(Cl)Br)C3 (stereo not shown) [SR-01000220077],5.29 ± 23.62%,> 14.1
10.58 ± 2.83%,> 9.8,7.2,0.26,74.1 ± 13.55,0.17,0.17,1.98,65 ± 3.44,1.81 ± 0.04,CCOC(=O)C(CC)Oc1ccc2c(C)c(Cc3ccccc3)c(=O)oc2c1 (stereo not shown) [SR-01000421299],7.76 ± 14.27%,> 9.8
2.42 ± 7.61%,> 14.1,8.4,0.22,66.19 ± 8.60,1.64,1.37,1.11,64.5 ± 1.23,4.09 ± 0.09,COc1ccc(-c2noc(CN3CCCN(c4ccc(F)cc4)CC3)n2)c(OC)c1OC [SR-01000169333],9.54 ± 10.14%,> 14.1
7.66 ± 5.35%,> 14.6,2.8,0.30,86.87 ± 2.82,1.14,1.14,0.52,103 ± 1.95,1.1 ± 0.02,COc1ccccc1CNC(=O)N1c2ccccc2Sc2ccccc21 [SR-01000506165],5.72 ± 9.39%,> 14.6
,,,,,,,,65.5 ± 0.72,6.07 ± 0.14,O=C(Nc1cccc(-c2nnco2)c1)C1c2ccccc2Oc2ccccc21 [SR-01000907648-1 analog],,
,,,,,,,,51.9 ± 5.47,1.29 ± 0.03,CN1CCN(S(=O)(=O)c2ccc(Sc3ccc(Cl)cc3)c([N+](=O)[O-])c2)CC1 [SR-07000003837-2 analog 2],,
,,,,,,,,107 ± 1.95,1.68 ± 0.04,O=C(NCCC1=CCCCC1)N1c2ccccc2Sc2ccccc21 [SR-01000452455-1 analog],,
−2.6E+0 ± 5.18 ^ %,> 14.1,2.9,0.30,82.24 ± 3.16,2.79,2.79,1.53,,,COc1ccc(OC)c(NC2=C(Cl)C(=O)N(c3ccccc3C)C2=O)c1 [SR-01000228964],24.51 ± 4.86%,> 14.1
,,,,,,,,88.7 ± 21.1,9.45 ± 0.21,CC(=O)Nc1ccc(Sc2ccc(S(=O)(=O)Nc3ccc(C)cc3C)cc2[N+](=O)[O-])cc1 [SR-07000003837-2 analog 1],,
−11.2 ± 4.96%,> 13.3,10.2,0.30,60.57 ± 14.37,1.28,1.28,1.32,,,Brc1ccc2[nH]cc(-c3nnc4ccc5ccccc5n34)c2c1 [SR-01000524226],−2.2E+0 ± 7.28 ^ %,> 13.3
−2.2E+0 ± 2.25 ^ %,,,0.24,58.09 ± 4.56,0.55,0.55,2.37,,,CCn1cc(Cl)c(C(=O)OCC23CCC4c5ccccc5OC(C)(CC2C)C4C3C)n1 (stereo not shown) [SR-01000479575],11.60 ± 7.12%,> 7.6
6.87 ± 7.17%,> 14.1,3.7,0.33,90.45 ± 2.75,1.62,1.62,1.05,,,O=C(CCC(=O)OCc1ccc(Br)cc1)Nc1ccc(F)cc1 [SR-01000259336],26.21 ± 5.54%,> 14.1
1.48 ± 6.53%,> 11,5.2,0.25,71.75 ± 3.35,−1.4E+0,−1.4E+0,0.81,,,Cc1ccc(-n2cc(-c3ccccc3)nc2OCC(=O)Nc2ccccc2C)cc1 [SR-01000555462],9.21 ± 12.02%,> 11
21.81 ± 2.59%,> 13,3.1,0.28,81.29 ± 5.44,−62.7E−3,−63.1E−3,2.25,,,Cc1cc(C)cc(-n2cnc3cc(C(=O)NCc4ccccc4Cl)ccc32)c1 [SR-01000579741],13.52 ± 10.95%,> 13
7.71 ± 3.46%,> 10.9,7,0.25,82.91 ± 7.41,−712.7E−3,−712.7E−3,0.97,,,O=C(Nn1c(-c2cccc(Cl)c2)nc2ccccc2c1=O)c1cc(Br)ccc1Cl [SR-01000433654],23.11 ± 4.71%,> 10.9
